Measurements published in ChEMBL document CHEMBL3808350, “Stacking with No Planarity?” (ACS Med Chem Lett, 2016).

Assays:
Aminopeptidase B = Aminopeptidase B (Homo sapiens, UniProt Q9H4A4); test: Inhibition of aminopeptidase B (unknown origin)
[1] = biological target: T1, Bifunctional epoxide hydrolase 2 (Homo sapiens, UniProt P34913); test: Inhibition of sEH (unknown origin)
T1 sequence (P34913 whole entry): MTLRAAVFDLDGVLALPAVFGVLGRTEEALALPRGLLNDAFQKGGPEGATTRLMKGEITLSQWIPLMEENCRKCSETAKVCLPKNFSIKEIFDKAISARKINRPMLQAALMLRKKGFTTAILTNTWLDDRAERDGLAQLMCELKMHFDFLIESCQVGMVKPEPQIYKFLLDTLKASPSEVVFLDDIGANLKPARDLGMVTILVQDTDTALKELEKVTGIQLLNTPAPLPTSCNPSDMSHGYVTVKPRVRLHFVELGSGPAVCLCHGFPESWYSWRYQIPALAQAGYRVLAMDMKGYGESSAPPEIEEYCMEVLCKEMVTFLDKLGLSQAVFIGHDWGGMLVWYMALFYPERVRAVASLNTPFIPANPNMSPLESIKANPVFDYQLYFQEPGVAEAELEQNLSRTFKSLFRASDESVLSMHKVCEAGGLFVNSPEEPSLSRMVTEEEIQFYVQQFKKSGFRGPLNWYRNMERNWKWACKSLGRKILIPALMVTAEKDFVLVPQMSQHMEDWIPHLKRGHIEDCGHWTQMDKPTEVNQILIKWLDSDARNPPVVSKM

[2] = Displacement of (Z)-5-(4-(3-carboxy-3-hydroxyacryloyl)-4-(4-chlorobenzyl)piperidine-1-carbonyl)-2-(6-hydroxy-3-oxo-3H-xanthen-9-yl)benzoic acid from Influenza A virus (A/Viet Nam/1203/2004(H5N1)) recombinant C-terminal 10X-His-tagged polymerase acidic protein (1 to 209 residues) expressed in Escherichia coli BL21 (DE3) after 30 mins by fluorescence polarization assay

Chain of Aminopeptidase B (Q9H4A4 whole entry): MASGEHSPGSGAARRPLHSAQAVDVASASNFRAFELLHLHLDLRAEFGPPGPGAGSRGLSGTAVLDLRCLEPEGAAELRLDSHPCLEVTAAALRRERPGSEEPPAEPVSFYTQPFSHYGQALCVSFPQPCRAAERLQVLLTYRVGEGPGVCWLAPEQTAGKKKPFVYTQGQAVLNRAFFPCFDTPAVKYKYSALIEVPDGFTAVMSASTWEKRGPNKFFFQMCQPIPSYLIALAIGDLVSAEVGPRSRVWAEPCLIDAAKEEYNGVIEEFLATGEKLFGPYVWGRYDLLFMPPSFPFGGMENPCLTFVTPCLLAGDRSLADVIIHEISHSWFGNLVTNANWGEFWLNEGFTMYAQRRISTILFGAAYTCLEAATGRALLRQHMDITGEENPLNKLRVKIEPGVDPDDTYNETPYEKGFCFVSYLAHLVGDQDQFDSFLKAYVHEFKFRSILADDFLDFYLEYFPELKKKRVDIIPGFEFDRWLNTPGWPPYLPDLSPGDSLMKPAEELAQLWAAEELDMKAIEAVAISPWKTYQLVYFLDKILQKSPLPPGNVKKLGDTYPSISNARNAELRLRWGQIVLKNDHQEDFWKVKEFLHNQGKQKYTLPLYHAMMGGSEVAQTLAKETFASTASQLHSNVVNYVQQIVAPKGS

SMILES	IC50 (Aminopeptidase B) [µM]	Ki [2] [nM]	other results
CC(C)C[C@H](NC(=O)[C@@H](O)[C@H](N)CC1CCCCC1)C(=O)O	3.5	–	–
O=C(Nc1ccccc1)NC1CCCCC1	–	–	IC50 [1]: 760 nM
O=C(O)/C(O)=C/C(O)C1(Cc2ccc(Cl)cc2)CCN(Cc2ccccc2)CC1 (stereo not given)	–	90	–
O=C(O)/C(O)=C/C(O)C1(Cc2ccc(Cl)cc2)CCN(CC2CCCCC2)CC1 (stereo not given)	–	84	–
CC(C)C[C@H](NC(=O)[C@@H](O)[C@H](N)Cc1ccccc1)C(=O)O [UBENIMEX]	160	–	–
